Patent US20160324796A1, “COMPOSITIONS AND THEIR USE TO TREAT COMPLICATIONS OF ANEURYSMAL SUBARACHNOID HEMMORRHAGE” (Edge Therapeutics, Inc., priority 2007, published 2016)
Read-outs that look alike come from different tables or passages of the source.

What was measured:
[1] = cited from earlier work
[2] = Preclinical Study 2: CSF (cisterna magna) concentration of nimodipine; format: in vivo, mongrel dogs; conditions: oral nimodipine 0.86 mg/kg six times per day
Text: (§1) On days 8 and 15, the animals were anesthetized, and angiography, removal of CSF from the cistern magna and collection of plasma, were repeated. Other endpoints included daily blood pressure measurements, behavior assessment, and brain and spinal cord pathology. Animals were euthanized under anesthesia on day 28 or 49, perfused with PBS and then neutral buffered formalin, and the brains subjected to histological analysis.
Values are means±standard error of the mean (n=8 per measurement).

[3] = cited from earlier work; remark: listed apart in the source
[4] = Mice, Male, cited from earlier work
[5] = Plasma nimodipine after single subcutaneous injection of nimodipine PLGA microparticles; format: in vivo, Wistar rats; conditions: rats, up to day 15
Experimental: The rats were divided into separate treatment groups: one control group for treatment with a nimodipine reference solution (control group) and several test groups for treatment with exemplary nimodipine formulations (microparticle test group) according to the described invention. […] The test article was reconstituted with an injection vehicle volume of 0.15 or 0.70 ml, and the entire volume of each reconstituted vial was drawn up immediately and administered individually to each animal. Blood samples were collected from two alternating cohorts of 2 or 3 animals per cohort in the microparticle formulation-injected groups. Collection was immediately before injection and then 1, 12, and 24 hours post dose, and on days 4, 8, 11, and 15. After the last blood sample collection interval, the surviving animals were euthanized via carbon dioxide inhalation. Euthanasia was confirmed by cervical dislocation and anesthesia.

[6] = mongrel, dog, in vivo
Text: as §1
The animals are grouped according to whether the animals died or were euthanized at an unscheduled time (DOS) or underwent scheduled necropsy (SNC).

[7] = Rats, Male, cited from earlier work

## COCCOC(=O)C1=C(C)NC(C)=C(C(=O)OC(C)C)C1c1cccc([N+](=O)[O-])c1 (stereo not shown) [nimodipine, Isopropyl 2-methoxyethyl 1,4-dihydro-2,6-dimethyl-4-(m-nitrophenyl)-3,5-pyridinedicarboxylate]
[1]; Rabbits, Female, Intravenous
  LD50: 2.5 mg/kg
[1]; female, rabbit, in vivo, po
  LD50: 5000 mg/kg
[2]
  CSF nimodipine concentrations: low or undetectable
[3]; Dogs, Male and female, Intravenous
  LD50: 4 mg/kg
[3]; both, dog, in vivo, po
  LD50: 1000 to 2000 mg/kg
[4]; Intravenous
  LD50: 33 mg/kg
[4]; Oral
  LD50: 3562 mg/kg
[5]
  plasma nimodipine concentrations over time: sustained release of nimodipine over time
[6]; female, 28 d
  Brain discoloration, red, # of animals: 0
  Brain focus/foci, red, # of animals: 0
  Brain nodule, # of animals: 0
  Brain: chromatolysis, central, neuronal; minimal: 0
  Brain: degeneration, axonal/myelin; mild: 0
  Brain: degeneration, axonal/myelin; minimal: 0
  Brain: degeneration; mild: 0
  Brain: degeneration; minimal: 0
  Brain: fibroplasia; mild: 0
  Brain: fibroplasia; minimal: 0
  Brain: granulation tissue; mild: 0
  Brain: granulation tissue; minimal: 0
  Brain: hemorrhage; minimal: 0
  Brain: hemorrhage; moderate: 0
  Brain: inflammation, granulomous; minimal: 0
  Brain: inflammation, meningeal; minimal: 0
  Brain: inflammation, subacute/chronic; mild: 0
  Brain: macrophages, pigmented; mild: 0
  Brain: macrophages, pigmented; minimal: 0
  Brain: mineralization focal; minimal: 0
  Brain: neovascularization; minimal: 0
  Brain: within normal limits: 0
  Spinal Cord, Cervical: degeneration, axonal/myelin; minimal: 0
  Spinal Cord, Cervical: fibroplasia; minimal: 0
  Spinal Cord, Cervical: fibroplasia; moderate: 0
  Spinal Cord, Cervical: inflammation, granulomatous; minimal: 0
  Spinal Cord, Cervical: inflammation, subacute/chronic; mild: 0
  Spinal Cord, Cervical: macrophages, pigmented; minimal: 0
  Spinal Cord, Cervical: within normal limits: 0
  Spinal Cord, Lumbar: fibroplasia; minimal: 0
  Spinal Cord, Lumbar: hemorrhage; minimal: 0
  Spinal Cord, Lumbar: mineralization; minimal: 0
  Spinal Cord, Lumbar: within normal limits: 0
  Spinal Cord, Thoracic: fibroplasia; minimal: 0
  Spinal Cord, Thoracic: hemorrhage; minimal: 0
  Spinal Cord, Thoracic: inflammation, granulomatous; minimal: 0
  Spinal Cord, Thoracic: inflammation, subacute/chronic; minimal: 0
  Spinal Cord, Thoracic: macrophages, pigmented; minimal: 0
  Spinal Cord, Thoracic: within normal limits: 0
[6]; female, 49 d
  Brain discoloration, red, # of animals: 0
  Brain focus/foci, red, # of animals: 0
  Brain nodule, # of animals: 0
  Brain: chromatolysis, central, neuronal; minimal: 0
  Brain: degeneration, axonal/myelin; mild: 0
  Brain: degeneration, axonal/myelin; minimal: 0
  Brain: degeneration; mild: 0
  Brain: fibroplasia; mild: 0
  Brain: fibroplasia; minimal: 0
  Brain: granulation tissue; mild: 0
  Brain: granulation tissue; minimal: 0
  Brain: hemorrhage; mild: 0
  Brain: hemorrhage; minimal: 0
  Brain: hemorrhage; moderate: 0
  Brain: infiltration, lymphoid, perivascular; minimal: 0
  Brain: inflammation, granulomous; mild: 0
  Brain: inflammation, granulomous; minimal: 0
  Brain: inflammation, meningeal; minimal: 0
  Brain: inflammation, subacute/chronic; mild: 0
  Brain: macrophages, pigmented; mild: 0
  Brain: macrophages, pigmented; minimal: 0
  Brain: mineralization focal; minimal: 0
  Brain: neovascularization; minimal: 0
  Brain: within normal limits: 0
  Spinal Cord, Cervical: degeneration, axonal/myelin; minimal: 0
  Spinal Cord, Cervical: fibroplasia; mild: 0
  Spinal Cord, Cervical: fibroplasia; minimal: 0
  Spinal Cord, Cervical: fibroplasia; moderate: 0
  Spinal Cord, Cervical: hemorrhage; minimal: 0
  Spinal Cord, Cervical: inflammation, granulomatous; minimal: 0
  Spinal Cord, Cervical: inflammation, granulomatous; moderate: 0
  Spinal Cord, Cervical: inflammation, subacute/chronic; mild: 0
  Spinal Cord, Cervical: macrophages, pigmented; minimal: 0
  Spinal Cord, Cervical: within normal limits: 0
  Spinal Cord, Lumbar: fibroplasia; minimal: 0
  Spinal Cord, Lumbar: hemorrhage; minimal: 0
  Spinal Cord, Lumbar: mineralization; minimal: 0
  Spinal Cord, Lumbar: within normal limits: 0
  Spinal Cord, Thoracic: fibroplasia; minimal: 0
  Spinal Cord, Thoracic: hemorrhage; minimal: 0
  Spinal Cord, Thoracic: inflammation, granulomatous; minimal: 0
  Spinal Cord, Thoracic: inflammation, subacute/chronic; minimal: 0
  Spinal Cord, Thoracic: macrophages, pigmented; minimal: 0
  Spinal Cord, Thoracic: within normal limits: 0
[6]; male, 28 d
  Brain discoloration, red, # of animals: 0
  Brain focus/foci, red, # of animals: 0
  Brain nodule, # of animals: 0
  Brain: chromatolysis, central, neuronal; minimal: 0
  Brain: degeneration, axonal/myelin; mild: 0
  Brain: degeneration, axonal/myelin; minimal: 0
  Brain: degeneration; mild: 0
  Brain: degeneration; minimal: 0
  Brain: granulation tissue; mild: 0
  Brain: granulation tissue; minimal: 0
  Brain: hemorrhage; mild: 0
  Brain: hemorrhage; minimal: 0
  Brain: hemorrhage; moderate: 0
  Brain: infiltration, lymphoid, perivascular; minimal: 0
  Brain: inflammation, meningeal; minimal: 0
  Brain: inflammation, subacute/chronic; mild: 0
  Brain: inflammation, subacute/chronic; minimal: 0
  Brain: macrophages, pigmented; minimal: 0
  Brain: mineralization focal; minimal: 0
  Brain: neovascularization; minimal: 0
  Brain: within normal limits: 0
  Spinal Cord, Cervical: degeneration, axonal/myelin; minimal: 0
  Spinal Cord, Cervical: fibroplasia; minimal: 0
  Spinal Cord, Cervical: inflammation, granulomatous; moderate: 0
  Spinal Cord, Cervical: within normal limits: 0
  Spinal Cord, Lumbar: fibroplasia; minimal: 0
  Spinal Cord, Lumbar: hemorrhage; minimal: 0
  Spinal Cord, Lumbar: mineralization; minimal: 0
  Spinal Cord, Lumbar: within normal limits: 0
  Spinal Cord, Thoracic: fibroplasia; minimal: 0
  Spinal Cord, Thoracic: hemorrhage; minimal: 0
  Spinal Cord, Thoracic: inflammation, granulomatous; minimal: 0
  Spinal Cord, Thoracic: inflammation, subacute/chronic; minimal: 0
  Spinal Cord, Thoracic: macrophages, pigmented; minimal: 0
  Spinal Cord, Thoracic: within normal limits: 0
[6]; male, 49 d
  Brain discoloration, red, # of animals: 0
  Brain focus/foci, red, # of animals: 0
  Brain nodule, # of animals: 0
  Brain: chromatolysis, central, neuronal; minimal: 0
  Brain: degeneration, axonal/myelin; mild: 0
  Brain: degeneration, axonal/myelin; minimal: 0
  Brain: degeneration; mild: 0
  Brain: degeneration; minimal: 0
  Brain: fibroplasia; minimal: 0
  Brain: granulation tissue; mild: 0
  Brain: granulation tissue; minimal: 0
  Brain: hemorrhage; mild: 0
  Brain: hemorrhage; minimal: 0
  Brain: hemorrhage; moderate: 0
  Brain: infiltration, lymphoid, perivascular; minimal: 0
  Brain: inflammation, granulomous; mild: 0
  Brain: inflammation, meningeal; minimal: 0
  Brain: inflammation, subacute/chronic; mild: 0
  Brain: macrophages, pigmented; mild: 0
  Brain: macrophages, pigmented; minimal: 0
  Brain: mineralization focal; minimal: 0
  Brain: neovascularization; minimal: 0
  Brain: within normal limits: 0
  Spinal Cord, Cervical: degeneration, axonal/myelin; minimal: 0
  Spinal Cord, Cervical: fibroplasia; minimal: 0
  Spinal Cord, Cervical: fibroplasia; moderate: 0
  Spinal Cord, Cervical: hemorrhage; minimal: 0
  Spinal Cord, Cervical: inflammation, granulomatous; minimal: 0
  Spinal Cord, Cervical: inflammation, granulomatous; moderate: 0
  Spinal Cord, Cervical: inflammation, subacute/chronic; mild: 0
  Spinal Cord, Cervical: macrophages, pigmented; minimal: 0
  Spinal Cord, Lumbar: fibroplasia; minimal: 0
  Spinal Cord, Lumbar: hemorrhage; minimal: 0
  Spinal Cord, Lumbar: mineralization; minimal: 0
  Spinal Cord, Lumbar: within normal limits: 0
  Spinal Cord, Thoracic: fibroplasia; minimal: 0
  Spinal Cord, Thoracic: hemorrhage; minimal: 0
  Spinal Cord, Thoracic: inflammation, granulomatous; minimal: 0
  Spinal Cord, Thoracic: inflammation, subacute/chronic; minimal: 0
  Spinal Cord, Thoracic: macrophages, pigmented; minimal: 0
  Spinal Cord, Thoracic: within normal limits: 0
[7]; Intravenous
  LD50: 16 mg/kg
[7]; Oral
  LD50: 6599 mg/kg
